# Experimental data from patent US5041567A, “Antibacterial monic acid derivatives” (Beecham Group plc, priority 1982, dated 1991).
# Like-named read-outs stand apart in the source and are kept apart here.
# What was measured:
# [1] = system: Neisseria catarrhalis 1502; assay: MIC against human bacteria in vitro; type: cell-based; conditions: Neisseria catarrhalis 1502; 5% chocolated horse blood agar, 18 hours; read-out: MIC
# [2] = system: Staph. aureus B4 (pen. resistant); assay: MIC against veterinary bacteria in vitro; conditions: Staphylococcus aureus, 18 h
# Procedure: (§1) The activity of the compounds of the Examples against various veterinarily important bacteria, was assayed in vitro using two-fold serial dilutions in Diagnostic Sensitivity Test Agar inoculated with 10^4 organisms.
# [3] = system: Strep. agalactiae SPA1; assay: MIC against veterinary bacteria in vitro; conditions: Streptococcus agalactiae, SPA1, 18 h
# Procedure: as §1
# [4] = system: Strep. suis (group D) SPS11; assay: MIC against veterinary bacteria in vitro; conditions: Streptococcus suis, 18 h
# Procedure: as §1
# [5] = system: Staph. aureus Oxford; assay: MIC against human bacteria in vitro; type: cell-based; conditions: Staphylococcus aureus; Staph. aureus Oxford; 5% chocolated horse blood agar, 18 hours; read-out: MIC
# [6] = system: P. mirabilis 889; assay: MIC against human bacteria in vitro; type: cell-based; conditions: Proteus mirabilis; P. mirabilis 889; 5% chocolated horse blood agar, 18 hours; read-out: MIC
# [7] = system: Ps. aeruginosa NCTC 10662; assay: MIC against human bacteria in vitro; type: cell-based; conditions: Pseudomonas aeruginosa, NCTC10662; Ps. aeruginosa NCTC 10662; 5% chocolated horse blood agar, 18 hours; read-out: MIC
# [8] = system: Haemophilus influenzae Wy21; assay: MIC against human bacteria in vitro; type: cell-based; conditions: Haemophilus influenzae Wy21; 5% chocolated horse blood agar, 18 hours; read-out: MIC
# [9] = system: Strep. agalactiae 2788-B; assay: MIC against human bacteria in vitro; type: cell-based; conditions: Streptococcus agalactiae; Strep. agalactiae 2788-B; 5% chocolated horse blood agar, 18 hours; read-out: MIC
# [10] = system: Bacillus subtilis 6633; assay: MIC against human bacteria in vitro; type: cell-based; conditions: Bacillus subtilis 6633; 5% chocolated horse blood agar, 18 hours; read-out: MIC
# [11] = system: Corynebacterium xerosis 9755; assay: MIC against human bacteria in vitro; type: cell-based; conditions: Corynebacterium xerosis 9755; 5% chocolated horse blood agar, 18 hours; read-out: MIC
# [12] = system: Sarcina lutea 8340; assay: MIC against human bacteria in vitro; type: cell-based; conditions: Micrococcus luteus; Sarcina lutea 8340; 5% chocolated horse blood agar, 18 hours; read-out: MIC
# [13] = system: Strep. pyogenes R80/421-A; assay: MIC against human bacteria in vitro; type: cell-based; conditions: Streptococcus pyogenes; Strep. pyogenes R80/421-A; 5% chocolated horse blood agar, 18 hours; read-out: MIC
# [14] = system: Past. multocida PA1; assay: MIC against veterinary bacteria in vitro; conditions: Pasteurella multocida, PA1, 18 h
# Procedure: as §1
# [15] = system: M. bovigenitalium ATCC 14173; assay: MIC against mycoplasma in vitro; type: cell-based; conditions: 144 h
# [16] = system: M. suipneumoniae J2206/183^b; assay: MIC against mycoplasma in vitro; type: cell-based; conditions: Mesomycoplasma hyopneumoniae, 144 h; M. suipneumoniae J2206/183^b; 6 days, 37° C.; read-out: MIC
# [17] = system: M. suipneumoniae JF 435; assay: MIC against mycoplasma in vitro; type: cell-based; conditions: Mesomycoplasma hyopneumoniae, JF435, 144 h; M. suipneumoniae JF 435; 6 days, 37° C.; read-out: MIC
# [18] = system: M. hyosynoviae ATCC 25591; assay: MIC against mycoplasma in vitro; type: cell-based; conditions: 144 h; M. hyosynoviae ATCC 25591; 6 days, 37° C.; read-out: MIC
# [19] = system: M. suipneumoniae Str. 11; assay: MIC against mycoplasma in vitro; type: cell-based; conditions: Mesomycoplasma hyopneumoniae, 144 h; M. suipneumoniae Str. 11; 6 days, 37° C.; read-out: MIC
# [20] = system: M. dispar NCTC 10125; assay: MIC against mycoplasma in vitro; type: cell-based; conditions: 144 h
# [21] = system: M. suipneumoniae NB12; assay: MIC against mycoplasma in vitro; type: cell-based; conditions: Mesomycoplasma hyopneumoniae, 144 h; M. suipneumoniae NB12; Friis broth, 0.9% agarose, 6 days, 37° C.; read-out: MIC
# [22] = system: Pasteurella multocida 1633; assay: MIC against human bacteria in vitro; type: cell-based; conditions: Pasteurella multocida 1633; 5% chocolated horse blood agar, 18 hours; read-out: MIC
# [23] = system: M. suipneumoniae TAM 6N; assay: MIC against mycoplasma in vitro; type: cell-based; conditions: Mesomycoplasma hyopneumoniae, TAM6N, 144 h; M. suipneumoniae TAM 6N; 6 days, 37° C.; read-out: MIC
# [24] = system: M. hyorhinis ATCC 25021; assay: MIC against mycoplasma in vitro; type: cell-based; conditions: Mesomycoplasma hyorhinis, ATCC25021, 144 h
# [25] = system: E. coli ESS; assay: MIC against human bacteria in vitro; type: cell-based; conditions: Escherichia coli; E. coli ESS; 5% chocolated horse blood agar, 18 hours; read-out: MIC
# [26] = system: Corynebacterium pyogenes CY1; assay: MIC against veterinary bacteria in vitro; conditions: CY1, 18 h
# Procedure: as §1
# [27] = system: Strep. uberis SPU1; assay: MIC against veterinary bacteria in vitro; conditions: Streptococcus uberis, SPU1, 18 h
# Procedure: as §1
# [28] = system: M. suipneumoniae ATCC 25095; assay: MIC against mycoplasma in vitro; type: cell-based; conditions: Mesomycoplasma hyopneumoniae, ATCC25095, 144 h; M. suipneumoniae ATCC 25095; 6 days, 37° C.; read-out: MIC
# [29] = system: M. suipneumoniae MS 16; assay: MIC against mycoplasma in vitro; type: cell-based; conditions: Mesomycoplasma hyopneumoniae, MS16, 144 h
# [30] = system: Staph. aureus Russell; assay: MIC against human bacteria in vitro; type: cell-based; conditions: Staphylococcus aureus; Staph. aureus Russell; 5% chocolated horse blood agar, 18 hours; read-out: MIC
# [31] = system: K. aerogenes A; assay: MIC against human bacteria in vitro; type: cell-based; conditions: Klebsiella aerogenes; K. aerogenes A; 5% chocolated horse blood agar, 18 hours; read-out: MIC
# [32] = system: Staph. aureus W2827; assay: MIC against human bacteria in vitro; type: cell-based; conditions: Staphylococcus aureus; Staph. aureus W2827; 5% chocolated horse blood agar, 18 hours; read-out: MIC
# [33] = system: Strep. faecalis I; assay: MIC against human bacteria in vitro; type: cell-based; conditions: Enterococcus faecalis; Strep. faecalis I; 5% chocolated horse blood agar, 18 hours; read-out: MIC
# [34] = system: S. dublin S7; assay: MIC against veterinary bacteria in vitro; conditions: Salmonella enterica, S7, 18 h
# Procedure: as §1
structure (smiles),measurement,setting,value
"C/C(=C\c1ncc(-c2ccc(C=O)cc2)o1)C[C@@H]1OC[C@H](C[C@@H]2O[C@H]2[C@@H](C)[C@H](C)O)[C@@H](O)[C@H]1O [Example 15, 5-p-Formylphenyl-2-(1-normon-2-yl) oxazole A]",MIC,[1],4 µg/mL
same,MIC,[2],2.5 µg/mL
same,MIC,[3],1.25 µg/mL
same,MIC,[4],20 µg/mL
same,MIC,[5],2 µg/mL
same,MIC,[6],> 128 µg/mL
same,MIC,[7],> 128 µg/mL
same,MIC,[8],4 µg/mL
same,MIC,[9],8 µg/mL
same,MIC,[10],2 µg/mL
same,MIC,[11],> 128 µg/mL
same,MIC,[12],> 128 µg/mL
same,MIC,[13],8 µg/mL
same,MIC,[14],10 µg/mL
same,MIC,[15],0.05 µg/mL
same,MIC,[16],0.5 µg/mL
same,MIC,[17],0.5 µg/mL
same,MIC,[18],0.5 µg/mL
same,MIC,[19],0.5 µg/mL
same,MIC,[20],0.1 µg/mL
same,MIC,[21],0.5 µg/mL
same,MIC,[22],32 µg/mL
same,MIC,[23],0.5 µg/mL
same,MIC,[24],0.25 µg/mL
same,MIC,[25],16 µg/mL
same,MIC,[26],> 80 µg/mL
same,MIC,[27],0.625 µg/mL
same,MIC,[28],0.5 µg/mL
same,MIC,[29],0.25 µg/mL
same,MIC,[30],8 µg/mL
same,MIC,[31],> 128 µg/mL
same,MIC,[32],8 µg/mL
same,MIC,[33],> 128 µg/mL
same,MIC,[34],> 80 µg/mL
"COC(=O)c1ccc(-c2cnc(/C=C(\C)C[C@@H]3OC[C@H](C[C@@H]4O[C@H]4[C@@H](C)[C@H](C)O)[C@@H](O)[C@H]3O)o2)cc1 [Example 16, 5-p-Methoxycarbonylphenyl-2-(1-normon-2-yl) oxazole A]",MIC,[1],8 µg/mL
same,MIC,[2],5 µg/mL
same,MIC,[3],1.25 µg/mL
same,MIC,[4],20 µg/mL
same,MIC,[5],4 µg/mL
same,MIC,[6],> 64 µg/mL
same,MIC,[7],> 64 µg/mL
same,MIC,[8],2 µg/mL
same,MIC,[9],4 µg/mL
same,MIC,[10],1 µg/mL
same,MIC,[11],> 64 µg/mL
same,MIC,[12],> 64 µg/mL
same,MIC,[13],4 µg/mL
same,MIC,[14],40 µg/mL
same,MIC,"[15]; M. bovigenitalium ATCC 14173, 6 days, 37° C., read-out: MIC",0.1 µg/mL
same,MIC,[16],0.5 µg/mL
same,MIC,[17],0.5 µg/mL
same,MIC,[18],0.5 µg/mL
same,MIC,[19],0.25 µg/mL
same,MIC,"[20]; M. dispar NCTC 10125, 6 days, 37° C., read-out: MIC",0.1 µg/mL
same,MIC,[21],0.5 µg/mL
same,MIC,[22],16 µg/mL
same,MIC,[23],0.5 µg/mL
same,MIC,"[24]; M. hyorhinis ATCC 25021, 6 days, 37° C., read-out: MIC",0.25 µg/mL
same,MIC,[25],32 µg/mL
same,MIC,[26],> 80 µg/mL
same,MIC,[27],0.312 µg/mL
same,MIC,[28],0.25 µg/mL
same,MIC,"[29]; M. suipneumoniae MS 16, 6 days, 37° C., read-out: MIC",0.25 µg/mL
same,MIC,[30],4 µg/mL
same,MIC,[31],> 64 µg/mL
same,MIC,[32],4 µg/mL
same,MIC,[33],> 64 µg/mL
same,MIC,[34],> 80 µg/mL
